We go through 15 compounds from publication PMC8032668, “Evaluation of carboxyfluorescein-labeled 7-methylguanine nucleotides as probes for studying cap-binding proteins by fluorescence anisotropy” (Scientific Reports, 2021).

Experiment [1] has as its system DcpS. Details: method as in PMID 27031609. The settings on record: DcpS inhibition, FR assay; cited from earlier work.
Experiment [2] addresses T1, DcpS (Homo sapiens, UniProt Q96C86).
T1 construct: His tag; made in house; host or cells: E. coli BL21(DE3) RIL
T1 sequence (Q96C86 1-337): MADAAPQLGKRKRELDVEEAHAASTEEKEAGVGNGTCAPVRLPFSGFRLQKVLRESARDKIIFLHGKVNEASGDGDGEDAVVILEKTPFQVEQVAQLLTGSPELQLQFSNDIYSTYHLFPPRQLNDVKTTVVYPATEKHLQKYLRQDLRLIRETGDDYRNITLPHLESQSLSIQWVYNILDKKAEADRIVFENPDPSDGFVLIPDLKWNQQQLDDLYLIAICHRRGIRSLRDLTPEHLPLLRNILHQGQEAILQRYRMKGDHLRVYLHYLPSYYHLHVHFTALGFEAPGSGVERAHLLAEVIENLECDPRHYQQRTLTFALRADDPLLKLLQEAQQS
As to the kind of experiment: FA competition assay for DcpS. The experiment is classed as binding. The protocol:
Expression of recombinant His-tagged human DcpS was performed in BL21(DE3) RIL strain and induced overnight at 18 °C using 0.5 mM IPTG as described previously. Cells were harvested, resuspended in buffer (50 mM Tris pH 7.6, 500 mM NaCl, 20 mM imidazole) with lysozyme (0.1 mg/ml) and protease inhibitors (1 mM PMSF, 1 µM pepstatin A, 0.3 µM aprotinin) and then lysed using sonication. Lysate was clarified by centrifugation at 35 000 × g for 40 min at 4 °C. […] The enzyme hDcpS was purified to homogeneity on HiLoad 16/600 Superdex 200 pg (GE Healthcare) gel filtration column using 50 mM Tris·HCl pH 7.6, 200 mM NaCl, 2 mM DTT buffer. Protein was aliquoted and stored in the presence of 10% glycerol at -80 °C.
(§1) Experiments were carried out at 25 °C in 96-well non-binding microplates with sample volume of 200 µl per well. Two different buffers were used depending on protein used in the assay:
DcpS assay buffer—50 mM Tris–HCl (pH 7.6), 200 mM KCl, 0.5 mM EDTA, 1 mM DTT.
(§2) For competitive binding assay, a mixture containing the probe and the protein was incubated with the tested ligand.
(§3) In competitive measurements, a constant concentration of the protein and fluorescent probe and increasing concentration of the test ligand were used. At least 12 point dilutions of the tested compound were used. The experiments were carried out in 96-well plates. Each sample contained a mixture consisting of the probe, tested ligand and buffer (same as for the direct binding assay). The samples were incubated for 10 min at 25 °C with simultaneous shaking, then the protein was added to each well, incubated for additional 3 min, followed by the measurement of fluorescence anisotropy. FA signals were recorded for 20 min with 2 min intervals.

In experiment [3] the target is T2, eIF4E (Mus musculus, UniProt P63073).
T2 construct: Murine eIF4E (residues 28–217) was expressed in E. coli; made in house; host or cells: E. coli
T2 sequence (P63073 28-217): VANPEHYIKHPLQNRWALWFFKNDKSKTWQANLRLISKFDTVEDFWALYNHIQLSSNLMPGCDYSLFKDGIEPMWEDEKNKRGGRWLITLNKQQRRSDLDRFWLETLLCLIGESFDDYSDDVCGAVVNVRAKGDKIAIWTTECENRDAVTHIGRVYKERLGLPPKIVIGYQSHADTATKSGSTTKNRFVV
The experiment is described as follows: FA competition (probe-displacement) assay for eIF4E. The experiment is classed as binding, Murine. The settings on record: for EC50: HEPES pH 7.2. Here is the method: Inclusion bodies containing eIF4E were solubilized in 50 mM HEPES/KOH (pH 7.2) buffer containing 10% glycerol, 6 M guanidine hydrochloride and 2 mM DTT. Protein was then refolded during a two-step dialysis against buffer with decreasing concentration of guanidine hydrochloride in the presence of 100 mM KCl. Subsequently eIF4E was loaded on ion exchange HiTrap SP HP column (GE Healthcare), eluted with linear gradient of 0.1–1 M KCl and finally desalted and polished during a gel filtration purification step on HiLoad 16/600 Superdex 75 pg (GE Healthcare) using 50 mM HEPES pH 7.2, 100 mM KCl, 0.5 mM EDTA, 2 mM DTT buffer. eIF4E was aliquoted and stored in the presence of 10% glycerol at −80 °C. Before each experiment the protein was centrifuged on Ultrafree-MC Centrifugal PVDF filter with […] pore size (Millipore), at 4 °C and 3000×g for 2 min to remove any possible aggregates.
as §1
eIF4E assay buffer—50 mM HEPES (pH 7.2), 100 mM KCl, 0.5 mM EDTA, 1 mM DTT.
as §2, §3

In experiment [4] the target is T1, DcpS. The experiment is described as follows: FA screening of in-house library, 2i:DcpS system. The experiment is classed as binding. The settings on record: 1 nM 2i, 25 nM DcpS, 1.5 µM inhibitor. Here is the method: The Z’ factor was determined under conditions optimized for the competition assay. The Z’ value exceeded 0.8 for incubation times up to 1 h, making the assay suitable for screening experiments (Table 5). A screening experiment was then performed using the same compound library as that used for eIF4E screening. The results highlighted the impact of the triphosphate bridge modification on the affinity for the protein. […] The FA method also enabled the identification of unstable compounds, e.g., hydrozylable ligands for which determination of affinity is problematic (as observed by FA signal changes during the experiment; Fig. 7).
To evaluate the quality of the assay, the Z’ factor was determined for several protein-probe combinations. The assay was performed on 96-well microplates, where half of the samples were negative controls and the other half were positive controls.
For the screening experiments a small in-house library containing 21 ligands was used. Experiments were conducted in the same manner as Z’ factor determination, with exception that the ligand concentration was modified (eIF4E screening conditions: 1 nM 1e, 100 nM eIF4E, 750 nM ligand, DcpS screening conditions: 1 nM 2i, 25 nM DcpS, 1.5 µM ligand). For eIF4E screening experiment, the 1e:eIF4E system was used, for DcpS screening 2i:DcpS system was used.

For experiment [5], the system named is eIF4E. Details: method as in PMID 22316555. Conditions: cited from earlier work.
Another experiment has as its target 4G peptide (UniProt Q04637). The experiment is described as follows: fluorescence anisotropy. Conditions: cited from earlier work. For orientation: In fluorescence polarisation assays a small probe gives low polarisation when free and higher when bound to something large.
Setting [6] is: 1f:DcpS system, 1f and 100 nM DcpS.
Where [7] appears, read: 2g:DcpS system, 2 nM 2g and 25 nM DcpS.
Setting [8] is: 2i:DcpS system, 1 nM 2i and 25 nM DcpS.
Where [9] appears, read: 2h:DcpS system, 2 nM 2h and 25 nM DcpS.
Where [10] appears, read: Probe 1a: 10 nM probe 1a and 100 nM eIF4E.
Where [11] appears, read: Probe 1b: 1 nM probe 1b and 15 nM eIF4E.
The mark [12] stands for this setting: Probe 1e: footnote c, 1 nM probe 1c and 100 nM eIF4E.

Chain of eIF4E (from UniProt P06730) (P06730 2-217): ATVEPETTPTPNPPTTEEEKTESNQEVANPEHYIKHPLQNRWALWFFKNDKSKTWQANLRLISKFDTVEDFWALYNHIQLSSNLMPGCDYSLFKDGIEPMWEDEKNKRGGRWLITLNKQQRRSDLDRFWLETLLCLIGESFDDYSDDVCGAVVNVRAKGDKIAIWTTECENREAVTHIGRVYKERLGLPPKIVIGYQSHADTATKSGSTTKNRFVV

As usually defined, the IC50 is the concentration that gives 50% inhibition. Take `Nc1nc(N)c2c(OCC3CCN(Cc4c(Cl)cccc4Cl)CC3)cccc2n1` [RG3039]: the IC50 in the experiment with DcpS [1] was […].
Broadly, the EC50 is the concentration that produces a half-maximal response. A high value points to a need for much substance. What is called Hill slope is the slope factor of the fitted curve. As to `Cn1c[n+]([C@@H]2O[C@H](COP(=O)(O)OP(=O)([O-])O)[C@@H](O)[C@H]2O)c2nc(N)[nH]c(=O)c21` [m^7GDP], the concentration giving a half-maximal response (EC50) on DcpS [2] (setting [6]) worked out at 36.5 ± 3.6 nM; at DcpS [2] (setting [7]), 16.4 ± 0.2 nM; on DcpS [2] (setting [8]), 36.2 ± 4.7 nM; on DcpS [2] (setting [9]), 31.2 ± 10.7 nM; at eIF4E [3] (setting [10]) it was 204 ± 5.5 nM; on eIF4E [3] (setting [11]) it was 212 ± 30 nM. In addition, the response at eIF4E [3] (setting [12]) was half-maximal at 216 ± 11 nM (EC50). Besides, the Hill slope was determined as 1.98 ± 0.18 at DcpS [2] (setting [6]); 1.55 ± 0.09 at DcpS [2] (setting [7]); 1.42 ± 0.06 at DcpS [2] (setting [8]); 1.06 ± 0.37 at DcpS [2] (setting [9]); 1.36 ± 0.03 at eIF4E [3] (setting [10]); 1.16 ± 0.04 on eIF4E [3] (setting [11]). Besides, the Hill slope at eIF4E [3] (setting [12]) worked out at 1.08 ± 0.07. Further, in the experiment with DcpS [1], the half-maximal inhibitory concentration (IC50) is 5.2 ± 1.2 µM.
For the compound `Cn1c[n+]([C@@H]2O[C@H](COP(=O)(O)O)[C@@H](O)[C@H]2O)c2nc(N)[nH]c(=O)c21` [m^7GMP], the EC50 was found to be 104 ± 11 nM on DcpS [2] (setting [6]), 112 ± 11 nM on DcpS [2] (setting [7]), 255 ± 14 nM at DcpS [2] (setting [8]) and 357 ± 44 nM at DcpS [2] (setting [9]). For the same compound, the Hill slope is 1.19 ± 0.15 at DcpS [2] (setting [6]), 1.04 ± 0.02 at DcpS [2] (setting [7]), 1.00 ± 0.02 on DcpS [2] (setting [8]) and 0.93 ± 0.07 at DcpS [2] (setting [9]). The IC50 in the experiment with DcpS [1] is 97 ± 21 µM.
With `C[n+]1cn([C@@H]2O[C@H](COP(=O)(O)CP(=O)(O)OP(=O)(O)OC[C@H]3O[C@@H](n4cnc5c(=O)[nH]c(N)nc54)[C@H](O)[C@@H]3O)[C@@H](O)[C@H]2O)c2nc(N)[nH]c(=O)c21` [m^7GpCH2ppG], the “inhibitory potency in DcpS screening” value on DcpS [4] is recorded as “strong DcpS inhibitors”.
For the compound `C[n+]1cn([C@@H]2O[C@H](COP(=O)(O)CP(=O)(O)OP(=O)([O-])OP(=O)(O)OC[C@H]3O[C@@H](n4cnc5c(=O)[nH]c(N)nc54)[C@H](O)[C@@H]3O)[C@@H](O)[C@H]2O)c2nc(N)nc(O)c21` [m^7GpCH2pppG], on DcpS [4], the “inhibitory potency in DcpS screening” value is “strong DcpS inhibitors”.
Consider `C[n+]1cn([C@@H]2O[C@H](COP(=O)([O-])NP(=O)(O)OP(=O)(O)OC[C@H]3O[C@@H](n4cnc5c(=O)[nH]c(N)nc54)[C@H](O)[C@@H]3O)[C@@H](O)[C@H]2O)c2nc(N)[nH]c(=O)c21.N.N` [m^7GpNHppG], for which the concentration giving a half-maximal response (EC50) on DcpS [2] (setting [6]) is 27.8 ± 2.7 nM; on DcpS [2] (setting [7]), 11.6 ± 0.4 nM; on DcpS [2] (setting [8]), 17.9 ± 1.3 nM; at DcpS [2] (setting [9]) it was 18.1 ± 5 nM. Moreover, the Hill slope on DcpS [2] (setting [6]) came to 2.26 ± 0.16; at DcpS [2] (setting [7]), 1.95 ± 0.07; at DcpS [2] (setting [8]), 1.66 ± 0.10; at DcpS [2] (setting [9]), 1.23 ± 0.44. Further, in the experiment with DcpS [1], the half-maximal inhibitory concentration (IC50) was 3.2 ± 0.9 µM. At DcpS [4], the “inhibitory potency in DcpS screening” value is “strong DcpS inhibitors”.
Regarding `C[n+]1cn([C@@H]2O[C@H](COP(=O)([O-])NP(=O)([O-])OP(=O)([O-])OP(=O)([O-])OC[C@H]3O[C@@H](n4cnc5c(=O)[nH]c(N)nc54)[C@H](O)[C@@H]3O)[C@@H](O)[C@H]2O)c2nc(N)[nH]c(=O)c21.[Na+].[Na+].[Na+]` [m^7GpNHpppG], the “association constant KAS” value in the experiment on eIF4E [5] is 112.3 ± 1.8 µM⁻¹. Also, the “inhibitory potency in DcpS screening” value on DcpS [4] is given as “strong DcpS inhibitors”.
On to `C[n+]1cn([C@@H]2O[C@H](COP(=O)([S-])OP(=O)(O)OP(=O)(O)OC[C@H]3O[C@@H](n4cnc5c(=O)[nH]c(N)nc54)[C@H](O)[C@@H]3O)[C@@H](O)[C@H]2O)c2nc(N)nc(O)c21` (some centres unmarked) [m^7GpSppG D1], for which the “stability towards DcpS (FA signal changes during the screening experiment)” value on DcpS [4] is “slowly hydrolyzed DcpS substrates”.
Still for that read-out and setting: the entry for `[BH3-]P(=O)(OP(=O)(O)OCC1OC(n2cnc3c(=O)[nH]c(N)nc32)C(O)C1O)OP(=O)(O)OCC1OC(n2c[n+](C)c3c(=O)[nH]c(N)nc32)C(O)C1O` (centres unmarked) [m^7GppBH3pG D1] is “slowly hydrolyzed DcpS substrates”; for `[BH3-]P(=O)(OP(=O)(O)OCC1OC(n2cnc3c(=O)[nH]c(N)nc32)C(O)C1O)OP(=O)(O)OCC1OC(n2c[n+](C)c3c(=O)[nH]c(N)nc32)C(O)C1O` (centres unmarked) [m^7GppBH3pG D2] it is “slowly hydrolyzed DcpS substrates”.
In general, Kd refers to the constant that tells how readily two partners part at equilibrium. With eIF4E (from UniProt P06730), the Kd in the experiment with 4G peptide was 25 µM.
Consider m^7GSppSpG D1, for which the “inhibitory potency in DcpS screening” value at DcpS [4] is “the most potent inhibitors”.
Same read-out and setting: the entry for m^7GSppSpG D2 is “the most potent inhibitors”; for m^7GSppSpSG D1 it is “the most potent inhibitors”; for m^7GSppSpSG D2 it is “the most potent inhibitors”.
